In US20050124021A1 (priority 2000, published 2005):

How the values were obtained:
Rv1170 [1] = biological target: T1, Rv1170 (Mycobacterium tuberculosis, UniProt P9WJN3); assay type: biochemical, M. tuberculosis
[2] = system: M. smegmatis strain 49::H37Rv A18
Rv1170 [3] = biological target: T1, Rv1170; assay type: biochemical, M. tuberculosis; remark: listed apart in the source

T1 sequence (P9WJN3 whole entry, looked up): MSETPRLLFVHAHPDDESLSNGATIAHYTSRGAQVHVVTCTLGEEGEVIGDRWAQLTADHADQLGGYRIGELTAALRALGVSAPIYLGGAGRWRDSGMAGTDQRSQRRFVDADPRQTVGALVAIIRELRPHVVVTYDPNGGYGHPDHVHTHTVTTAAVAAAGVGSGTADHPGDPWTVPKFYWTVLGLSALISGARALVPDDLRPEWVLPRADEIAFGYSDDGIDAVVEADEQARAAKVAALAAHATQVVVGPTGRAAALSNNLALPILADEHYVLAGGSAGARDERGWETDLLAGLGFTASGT

Row | SMILES | Activity, deacetylase reaction (analysis for amine / deacetylase product) (Rv1170 [1]) | Decrease in reactivity versus GlcNAc-Ins (removal of inositol residue) (Rv1170 [1]) | Reduction of the peroxide sensitivity of mutant 49 [2] | Activity, amidase cleavage (analysis for AcCySmB or AcCys) (Rv1170 [3]) | Deacetylated by the invention deacetylase (Rv1170 [1])
1 | CC(=O)N[C@H]1C(O)O[C@H](CO)[C@@H](O)[C@@H]1O (stereo partly drawn) [GlcNAc, N-acetylglucosamine] | 0.087 ± 0.005 nmol min^−1 mg of protein^−1 | more than 300 fold |  |  | 
2 | OO [H2O2, hydrogen peroxide] |  |  | by a factor of two |  | 
3 | CC(=O)N[C@@H](CS)C(=O)N[C@H]1[C@@H](OC2[C@H](O)[C@H](O)C(O)[C@H](O)[C@H]2O)O[C@H](CO)[C@@H](O)[C@@H]1O (stereo partly drawn) [MSH, 1-D-myo-inosityl-2-(N-acetylcysteinyl)amido-2-deoxy-α-D-glucopyranoside] | <10^−4 nmol min^−1 mg of protein^−1 |  |  | 0.002 ± 0.001 nmol min^−1 mg of protein^−1 | neither MSH nor MSmB is deacetylated
